According to US10434186B2, “Functionalized linear ligands and complexes thereof” (LUMIPHORE, INC., priority 2014, dated 2019):
Where a name gives a salt, the structure may show the parent alone. Each block holds one compound with its values, some of them ahead of it.

Experiments:
[1] = Eu(III) complex of the ligand; cited from earlier work
[2] = Molar extinction coefficient from absorption spectrum in 0.1 M TRIS buffer; format: physicochemical
Description: This corresponds to 1.218×10^−6 moles of ligand in 50 mL and c=2.436×10^−5 M. A=ϵcl, at λmax, A=0.42853 at 327 nm. […] This corresponds to 2.472×10^−6 moles of ligand in 50 mL and c=4.945×10^−5 M. A=ϵcl; at λmax, A=0.96915 at 315 nm.

[3] = in 0.5 M H2SO4; cited from earlier work

SMILES: O=C(NCCCN(CCCCN(CCCNC(=O)c1cccc(=O)n1O)C(=O)c1cccc(=O)n1O)C(=O)c1cccc(=O)n1O)c1cccc(=O)n1O [3,4,3-LI(1,2-HOPO)]
- quantum yield of Eu(III) complex [1]: ~20%

- ϵ280/ϵ327 ratio for protein labelling ([2]; 0.1 M TRIS buffer pH 7.4): 3.11
- extinction coefficient ϵ at 327 nm (λmax) ([2]; 0.1 M TRIS buffer pH 7.4, 1 cm cuvette, based on CHN): ~17,595 M^−1 cm^−1
- extinction coefficient at 280 nm ([2]; 0.1 M TRIS buffer pH 7.4, 280 nm): ~5655 M⁻¹ cm⁻¹
SMILES: Cl.NCCOCCNC(=O)C(CCCN(CCCNC(=O)c1cccc(=O)n1O)C(=O)c1cccc(=O)n1O)N(CCCNC(=O)c1cccc(=O)n1O)C(=O)c1cccc(=O)n1O (centres unmarked) [Compound 2-8]

SMILES: C=C[C@H]1C[N@@]2CC[C@H]1C[C@H]2[C@H](O)c1ccnc2ccc(OC)cc12 [Quinine Sulfate]
- reference quantum yield Φref [3]: 0.546
